Converted amounts (≈) assume the structure as drawn. One block for each molecule: values may come before it.
Tests used:
AML2 cell line = assay: Cell killing assay (cytotoxicity) of IQB-CBI dimers, AML2; format: cell-based; conditions: 72 h; AML2 cells; 3-day incubation
Experimental: (§1) Cytotoxicity of D801, D803, D05, D807, D809, D811, D813, D815 and D817 were tested against AML2 and HL60 cell lines. Cell killing assay was performed after 3-day incubation with various IQB-CBI dimers.

HL60 cell line = assay: Cell killing assay (cytotoxicity) of IQB-CBI dimers, HL60; format: cell-based; conditions: Homo sapiens, HL-60, 72 h; HL60 cells; 3-day incubation
Experimental: as §1

[1] = biological target: T1, human interleukin 1 receptor accessory protein (IL1RAP) (human, UniProt Q9NPH3 21-570); assay: flow cytometry (MFI, anti-human APC secondary) on HL-60, EOL1 and SK-MEL-5 cells expressing IL1RAP
T1 construct: The target is carried by human cell lines: EOL1 at high copy number, HL-60 and SK-MEL-5 at low copy number
T1 sequence: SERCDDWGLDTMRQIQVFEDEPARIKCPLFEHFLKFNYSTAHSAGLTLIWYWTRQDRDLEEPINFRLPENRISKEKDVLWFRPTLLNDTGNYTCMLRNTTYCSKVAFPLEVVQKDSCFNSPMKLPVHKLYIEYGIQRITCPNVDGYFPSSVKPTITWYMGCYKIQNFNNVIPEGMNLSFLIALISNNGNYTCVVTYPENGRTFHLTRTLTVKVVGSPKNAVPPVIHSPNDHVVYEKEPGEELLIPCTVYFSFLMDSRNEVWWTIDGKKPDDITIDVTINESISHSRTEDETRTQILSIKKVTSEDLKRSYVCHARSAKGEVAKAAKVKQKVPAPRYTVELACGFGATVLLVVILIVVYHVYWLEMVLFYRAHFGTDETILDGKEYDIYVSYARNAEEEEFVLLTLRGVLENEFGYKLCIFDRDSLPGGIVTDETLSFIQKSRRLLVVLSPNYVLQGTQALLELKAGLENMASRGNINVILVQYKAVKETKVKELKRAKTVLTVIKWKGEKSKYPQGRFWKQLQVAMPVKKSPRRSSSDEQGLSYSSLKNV
From the text: FIGS. 15 and 16 show binding, as a function of mean fluorescent intensity, of humanized (hu3G7) or chimeric (Chi3G7) anti-IL1RAP antibody to various cell lines. HL-60 cells (human promyelocytic leukemia cells), EOL1 cells (human eosinophilic leukemia cells) and SK-MEL-5 cells (human melanoma cell line) express IL1RAP, and EOL1 cells do so with high expression. C0 antibody is a non-binding control IgG1. D212 is a composition having the formula: […]
The cells were resuspended in binding buffer (PBS, 2% FBS)) containing 5% NHS (normal human serum) to 2 ×10^6 cells/mL. To 50 µL of cells, 50 µL of primary antibody/ADC was added and incubated at 4° for 30 min. After incubation, cells were wasked with binding buffer 2 times and then resuspended and incubated with second antibody (anti-human APC, 1:400 in the binding buffer) at 4° for 30 min. Cells were washed with binding buffer and resuspended in 200 uL of binding buffer with propidium iodide. Cells were immediately applied to flow cytometry for analysis. Mean fluorescence intensity (MFI) of the stained sample was measured.

Molecule: COc1cc2c(cc1OCCCCCC(=O)N1CC(CCl)c3c1cc(O)c1ccccc31)N=C[C@@H]1Cc3ccccc3CN1C2=O (stereo partly drawn) [D813, (6aS)-3-((6-(1-(chloromethyl)-5-hydroxy-1,2-dihydro-3H-benzo[e]indol-3-yl)-6-oxohexyl)oxy)-2-methoxy-7,12-dihydrobenzo[5,6][1,4]diazepino[1,2-b]isoquinolin-14(6aH)-one]
- IC50 (AML2 cell line): 0.00028 ng/mL (≈ 0.000439 nM)
- IC50 (HL60 cell line): 0.00072 ng/mL (≈ 0.00113 nM)

- binding result [1]: binds
B1: humanized, cys-substituted (S156C) anti-IL1RAP antibody 3G7 (hu3G7), tested as antibody and as IQB-CBI antibody-drug conjugates (antibody, human IgG1, kappa, V domains shown)
VH: EVQLVQSGAEVKKPGASVKISCKASGYTFTNYGMHWVRQAPGQGLEWMGWINTYTGEPTYAQKFQGRFTFTLDTSTSTAYLEIRSLRSDDTAVYYCARYYGNFDYWGQGTLLTVSS
VL: EIVMTQSPATLSVSPGERATLSCRASQSISNNLHWYQQKPGQAPRLLIYYASQSISGIPARFSGSGSGTEFTLTISSLQSEDFAVYYCQQSHNWPHTFGQGTKLEIKR
modifications: IQB-CBI dimer linker-payload (D816, D818, D820, D822, D824, D826 or D828) attached by maleimide to the substituted cysteine (S156C); DAR 1.7-2.0
notes: also called 3G7-S156C-CYSMAB; hu3G7-IQB-CBI

- binding result [1]: binds
B2: chimeric, cys-substituted (S156C) anti-IL1RAP antibody 3G7 (Chi3G7; human constant domain, mouse variable domain), tested as antibody and as IQB-CBI … (antibody, V domains shown)
VH: QIQLVQSGPELKKPGETVKISCKASGYTFTNYGMHWVKQSPGEGLKWMGWINTYTGEPTYADDFKGRFGFSLETSASSAYLQINDLKNEDMATYFCARYYGNFDYWGQGTTLTVSS
VL: DIVLTQSPATLSVTPGDSVSLSCRASQSISNNLHWYQQKSHESPRLLIKYASQSISGIPSRFSGSGSGTDFTLSINSVETEDFGVYFCQQSHNWPHTFGGGTKLEIKR
modifications: IQB-CBI dimer linker-payload (D816, D818, D820, D822, D824, D826 or D828) on the substituted cysteine S156C of the heavy chain constant region (constant region sequence not given)
notes: also called Chi3G7-(IQB-CBI) ADC; Chi3G7-CLT-(IQB-CBI) ADC
